These are literature values, as cited in patent US20080114028A1, “Process for preparing polymorphic forms of solifenacin succinate” (priority 2006, published 2008).

The conditions of this data set: at room temperature in water, glacial acetic acid, dimethylsulfoxide, and methanol.

On to `O=C(O[C@H]1CN2CCC1CC2)N1CCc2ccccc2[C@@H]1c1ccccc1` [Solifenacin succinate, solifenacin succinate], for which the solubility entry is “freely soluble”.
